Legend:
[1] = tested on: estrogen-unresponsive breast cell line BT-20; assay: GI50 growth inhibition, BT-20; format: cell-based
Method: (§1) The effect of the N-(aryl)-2-arylethenesulfonamides on normal fibroblasts and on tumor cells was determined by the assay described by Latham et al, Oncogene 12:827-837 (1996). Normal diploid lung human fibroblasts (HFL-1) or tumor cells (prostate, colorectal, breast, glial, pancreatic ovarian or leukemic) were plated in 6-well dishes at a cell density of 1.0×10^5 cells per 35-mm^2 well. The plated cells were treated 24 hours later with various concentrations of N-(aryl)-2-arylethenesulfonamide dissolved in dimethyl sulfoxide (DMSO). The total number of viable cells was determined 96 hours later by trypsinizing the wells and counting the number of viable cells, as determined by trypan blue exclusion, using a hemacytometer. Each compound tested (Exs. 1-17) inhibited cell proliferation when tested at a concentration of 30 micromolar. […] Normal HFL cells were treated with the same compounds under the same conditions of concentration and time.
(§2) A dose response curve was plotted for the tumor growth inhibitory effect of (E)-4-methoxystyryl-N-4-fluorophenyl sulfonamide on the estrogen-unresponsive breast cell line BT-20 (FIG. 1). The GI50 (the concentration of drug resulting in 50% net loss of growth inhibition) was determined as 10 μM. […] The (E)-4-methoxystyryl-N-4-fluorophenyl sulfonamide GI50 for the same compound against the cell lines listed in Table 7 was determined in the same manner.

DLD-1 = assay: GI50 growth inhibition, DLD-1; format: cell-based
Method: as §1, §2

DU145 = assay: GI50 growth inhibition, DU145; format: cell-based
Method: as §1, §2

H157 = assay: GI50 growth inhibition, H157; format: cell-based; conditions: result in words
Method: The effect of the N-(aryl)-2-arylethenesulfonamides on normal fibroblasts and on tumor cells was determined by the assay described by Latham et al, Oncogene 12:827-837 (1996). Normal diploid lung human fibroblasts (HFL-1) or tumor cells (prostate, colorectal, breast, glial, pancreatic ovarian or leukemic) were plated in 6-well dishes at a cell density of 1.0×10^5 cells per 35-mm^2 well. The plated cells were treated 24 hours later with various concentrations of N-(aryl)-2-arylethenesulfonamide dissolved in dimethyl sulfoxide (DMSO). The total number of viable cells was determined 96 hours later by trypsinizing the wells and counting the number of viable cells, as determined by trypan blue exclusion, using a hemacytometer. Each compound tested (Exs. 1-17) inhibited cell proliferation when tested at a concentration of 30 micromolar. […]
as §2, with “1).” for “1). The GI50 (the concentration of drug resulting in 50% net loss of growth inhibition) was determined as 10 μM.”
The GI50 of (E)-4-methoxystyryl-N-3-fluoro-4-methoxyphenyl sulfonamide was determined for the following cell lines: BT20, DU145, H157 and DLD-1.

SK-ov-3 = assay: GI50 growth inhibition, SK-ov-3; format: cell-based; conditions: Homo sapiens; SK-ov-3, Ovarian
Method: as §1, §2

BT20 cells = assay: Induction of apoptosis: PARP cleavage Western blot, BT20; format: cell-based; conditions: 20 μM, 96 hours
Excerpt: (§3) The caspases and the ICE-family proteases are cysteine proteases which are activated during apoptosis (Patel et al., FASEB 10:587-597, 1996). The cleavage of poly(ADP-ribose) polymerase (PARP), which is a target of caspase-3, apopain, and several other activated proteases, is a widely used and accepted marker for apoptosis (Nicholson et al., Nature 376(6533):37-43, 1995; Lippke et al., J. Biol. Chemistry 271:1825, 1996). For this assay, BT20 cells, an estrogen receptor negative breast carcinoma, and HFL-1 cells, normal lung fibroblasts, were treated with either (E)-4-methoxystyryl-N-4-fluorophenyl sulfonamide at a final concentration of 20 μM or dimethyl sulfoxide (DMSO) for 96 hours. The cells were then lysed in RIPA buffer and 100 μg of total cellular protein from each sample was resolved on a 10% SDS-polyacrylamide gel. The proteins were then Western blotted onto PROTRAN filter paper (S/S) and the filter was then probed with antibody (Boehringer Mannheim) specific for PARP. This antibody recognizes both the 116 kDa full length PARP and the 83 kDa cleaved product. […] The BT20 cells treated with DMSO for the same amount of time also had no activation of the apoptotic pathway.

LNCAP = assay: GI50 growth inhibition, LNCAP; format: cell-based; conditions: Homo sapiens, Prostate
Method: as §1, §2

PC-3 = assay: GI50 growth inhibition, PC-3; format: cell-based; conditions: Homo sapiens; PC-3, Prostate
Method: as §1, §2

SK-br-3 = assay: GI50 growth inhibition, SK-br-3; format: cell-based; conditions: Homo sapiens; SK-br-3, Breast
Method: as §1, §2

MIA-PaCa-2 = assay: GI50 growth inhibition, MIA-PaCa-2; format: cell-based; conditions: Homo sapiens; MIA-PaCa-2, Pancreatic
Method: as §1, §2

CEM = assay: GI50 growth inhibition, CEM; format: cell-based; conditions: Homo sapiens, CCRF-CEM, Leukemic
Method: as §1, §2

[2] = tested on: normal fibroblast line HFL-1; assay: GI50 growth inhibition, HFL-1; format: cell-based; conditions: Homo sapiens, HFL1; HFL-1, Normal diploid lung
Method: as §1, §2

HCT-116 = assay: GI50 growth inhibition, HCT-116; format: cell-based; conditions: Homo sapiens; HCT-116, Colo-rectal
Method: as §1, §2

COLO-320 = assay: GI50 growth inhibition, COLO-320; format: cell-based; conditions: Homo sapiens; COLO-320, Colo-rectal
Method: as §1, §2

U87 = assay: GI50 growth inhibition, U87; format: cell-based; conditions: Homo sapiens, U-87 MG; U87, Glioblastoma
Method: as §1, §2

HFL-1 cells = assay: Induction of apoptosis: PARP cleavage Western blot, HFL-1; format: cell-based, human; conditions: 20 μM, 96 hours
Excerpt: as §3

Row | GI50 compared with (E)-4-methoxystyryl-N-4-fluorophenyl sulfonamide ([1]; BT20, result in words) | GI50 compared with (E)-4-methoxystyryl-N-4-fluorophenyl sulfonamide (DLD-1; DLD-1, result in words) | GI50 compared with (E)-4-methoxystyryl-N-4-fluorophenyl sulfonamide (DU145; DU145, result in words) | GI50 compared with (E)-4-methoxystyryl-N-4-fluorophenyl sulfonamide (H157) | GI50 ([1]; Homo sapiens, BT-20 (BT2O), Breast) | GI50 (LNCAP) | GI50 (PC-3) | GI50 (MIA-PaCa-2) | GI50 (DLD-1; Homo sapiens, DLD-1, Colo-rectal) | GI50 (HCT-116) | GI50 (COLO-320) | GI50 (U87) | GI50 (DU145; Homo sapiens, DU-145, DU145, Prostate) | SMILES | GI50 (SK-ov-3) | PARP cleavage (83 kDa product, marker for apoptosis) (BT20 cells) | GI50 (SK-br-3) | GI50 (CEM) | GI50 [2] | PARP cleavage (83 kDa product, marker for apoptosis) (HFL-1 cells)
1 | in essential agreement | in essential agreement | in essential agreement | in essential agreement | – | – | – | – | – | – | – | – | – | COc1ccc(/C=C/S(=O)(=O)Nc2ccc(OC)c(F)c2)cc1 [Example 5, (E)-4-methoxystyryl-N-3-fluoro4-methoxyphenyl sulfonamide] | – | – | – | – | – | –
2 | – | – | – | – | 10 µM | 20 µM | 20 µM | 7 µM | 15 µM | 20 µM | 5 µM | 20 µM | 10 µM | COc1ccc(/C=C/S(=O)(=O)Nc2ccc(F)cc2)cc1 [Example 4, (E)-4-methoxystyryl-N-4-fluorophenyl sulfonamide] | 15 µM | presence of the 83 kDa PARP cleavage product | 30 µM | 30 µM | 50 µM | no cleavage of the full length PARP

From patent publication US6646009B2, “N-(aryl)-2-arylethenesulfonamides and therapeutic uses thereof” (Temple University — Of Commonwealth System of Higher …, priority 2001, dated 2003)
